Assay results published in the supplement of paper PMC10307832.

Experiments:
Assay in all cases: relative viability (nuclei count vs DMSO), 5 days (fraction); higher = more cells survive
BAY61-3606 + Alpelisib = compound: COC1=C(C=C(C=C1)C2=CC3=NC=CN3C(=N2)NC4=C(C=CC=N4)C(=O)N)OC [BAY61-3606] + Cc1nc(NC(=O)N2CCC[C@H]2C(N)=O)sc1-c1ccnc(C(C)(C)C(F)(F)F)c1 [Alpelisib] (partner 2 µM)
How it was run: (§1)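 Medians of duplicate plates are given as relative viability. That measure is the nuclei count in treated wells divided by the count in vehicle wells. Counts were taken on 4× images of lung cancer cell lines in 1536-well plates, 5 days after pin-tool dosing the day after seeding with one drug alone or a fixed anchor-drug dose plus five library-drug doses (not always all listed) in √10 steps.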

BAY61-3606 + Dasatinib = compound: COC1=C(C=C(C=C1)C2=CC3=NC=CN3C(=N2)NC4=C(C=CC=N4)C(=O)N)OC [BAY61-3606] + Cc1nc(Nc2ncc(C(=O)Nc3c(C)cccc3Cl)s2)cc(N2CCN(CCO)CC2)n1 [Dasatinib] (partner 0.075 µM)
How it was run: as §1

Doxorubicin + Foretinib = compound: COc1cccc2c1C(=O)c1c(O)c3c(c(O)c1C2=O)C[C@@](O)(C(=O)CO)C[C@@H]3O[C@H]1C[C@H](N)[C@H](O)[C@H](C)O1 [Doxorubicin] + COc1cc2c(Oc3ccc(NC(=O)C4(C(=O)Nc5ccc(F)cc5)CC4)cc3F)ccnc2cc1OCCCN1CCOCC1 [Foretinib] (partner 0.25 µM)
How it was run: as §1

Doxorubicin + Crizotinib = compound: COc1cccc2c1C(=O)c1c(O)c3c(c(O)c1C2=O)C[C@@](O)(C(=O)CO)C[C@@H]3O[C@H]1C[C@H](N)[C@H](O)[C@H](C)O1 [Doxorubicin] + C[C@@H](Oc1cc(-c2cnn(C3CCNCC3)c2)cnc1N)c1c(Cl)ccc(F)c1Cl [Crizotinib] (partner 1 µM)
How it was run: as §1

Cell Line | relative viability (BAY61-3606 + Alpelisib; first compound 0.02 µM) | relative viability (BAY61-3606 + Alpelisib; first compound 0.06325 µM) | relative viability (BAY61-3606 + Alpelisib; first compound 0.2 µM) | relative viability (BAY61-3606 + Alpelisib; first compound 0.6325 µM) | relative viability (BAY61-3606 + Alpelisib; first compound 2 µM) | relative viability (BAY61-3606 + Dasatinib; first compound 0.02 µM) | relative viability (BAY61-3606 + Dasatinib; first compound 0.06325 µM) | relative viability (BAY61-3606 + Dasatinib; first compound 0.2 µM) | relative viability (BAY61-3606 + Dasatinib; first compound 0.6325 µM) | relative viability (BAY61-3606 + Dasatinib; first compound 2 µM) | relative viability (Doxorubicin + Foretinib; first compound 0.001 µM) | relative viability (Doxorubicin + Foretinib; first compound 0.003162 µM) | relative viability (Doxorubicin + Foretinib; first compound 0.01 µM) | relative viability (Doxorubicin + Foretinib; first compound 0.03162 µM) | relative viability (Doxorubicin + Foretinib; first compound 0.1 µM) | relative viability (Doxorubicin + Crizotinib; first compound 0.001 µM) | relative viability (Doxorubicin + Crizotinib; first compound 0.003162 µM) | relative viability (Doxorubicin + Crizotinib; first compound 0.01 µM) | relative viability (Doxorubicin + Crizotinib; first compound 0.03162 µM) | relative viability (Doxorubicin + Crizotinib; first compound 0.1 µM)
NCI-H838 | 0.988 | 0.963 | 0.982 | 1.02 | 0.888 | 0.284 | 0.299 | 0.291 | 0.251 | 0.237 | 1.1 | 1.07 | 1.06 | 0.85 | 0.438 | 0.8 | 0.877 | 0.87 | 0.417 | 0.234
NCI-H1355 | 0.944 | 0.811 | 0.791 | 0.713 | 0.534 | 0.68 | 0.627 | 0.65 | 0.662 | 0.67 | 0.97 | 1.01 | 0.884 | 0.91 | 0.897 | 1.05 | 1.16 | 1.01 | 0.964 | 1.05
NCI-H1437 | 0.987 | 0.988 | 0.935 | 1.06 | 0.903 | 0.382 | 0.355 | 0.391 | 0.382 | 0.403 | 1.16 | 1.26 | 1.24 | 1.1 | 0.621 | 0.866 | 0.924 | 0.962 | 0.517 | 0.262
NCI-H1563 | 1.02 | 0.905 | 0.894 | 0.894 | 0.683 | 0.477 | 0.406 | 0.508 | 0.421 | 0.428 | 0.876 | 0.878 | 0.728 | 0.58 | 0.502 | 0.826 | 0.728 | 0.584 | 0.522 | 0.447
NCI-H1651 | 0.991 | 0.964 | 0.938 | 0.967 | 0.738 | 0.379 | 0.459 | 0.387 | 0.32 | 0.318 | 0.842 | 0.929 | 0.737 | 0.48 | 0.222 | 0.934 | 0.929 | 0.855 | 0.836 | 0.871
NCI-H1666 | 0.903 |  | 0.981 | 0.993 | 0.956 | 0.841 | 0.804 | 0.813 | 0.742 | 0.652 | 0.964 | 0.872 | 0.792 | 0.5 | 0.468 | 1.02 | 0.915 | 0.608 | 0.295 | 0.285
NCI-H1734 | 0.706 | 0.615 | 0.653 | 0.654 | 0.413 | 0.582 | 0.386 | 0.409 | 0.331 | 0.272 | 0.854 | 0.989 | 0.934 | 0.68 | 0.769 | 0.714 | 0.788 | 0.583 | 0.517 | 0.588
NCI-H1755 | 0.946 | 1.01 | 0.908 | 0.903 | 0.77 | 0.415 | 0.412 | 0.432 | 0.397 | 0.317 | 0.981 | 0.949 | 0.903 | 0.971 | 0.937 | 0.867 | 0.943 | 0.862 | 0.915 | 0.887
NCI-H1915 | 1.07 | 1.08 | 1.06 | 1.03 | 0.93 | 0.313 | 0.312 | 0.344 | 0.314 | 0.272 | 1.1 | 1.11 | 1.02 | 1.06 | 1.1 | 0.917 | 0.915 | 0.871 | 0.889 | 0.952
NCI-H1944 | 0.911 | 0.867 | 0.842 | 0.703 | 0.505 | 0.216 | 0.205 | 0.232 | 0.21 | 0.193 | 0.848 | 0.945 | 0.908 | 0.812 | 0.869 | 1.09 | 1.16 | 1.03 | 1 | 1.14
NCI-H1975 | 0.667 | 0.645 | 0.62 | 0.507 | 0.295 | 0.378 | 0.31 | 0.367 | 0.282 | 0.253 | 0.998 | 1 | 0.879 | 0.855 | 0.444 | 0.853 | 1.09 | 0.946 | 0.431 | 0.423
NCI-H1993 | 0.644 | 0.674 | 0.719 | 0.758 | 0.703 | 0.581 | 0.56 | 0.566 | 0.521 | 0.491 | 0.876 | 0.851 | 0.769 | 0.673 | 0.839 | 1.08 | 0.812 | 0.839 | 0.721 | 0.822
NCI-H2009 | 1.11 | 1.14 | 1.09 | 1.21 | 1.08 | 0.318 | 0.288 | 0.281 | 0.233 | 0.142 | 1.13 | 1.18 | 1.15 | 0.947 | 0.946 | 1.06 | 0.991 | 0.893 | 0.352 | 0.222
